Among the data in PubChem BioAssay AID2765 (Broad Institute, 2010) are EC50 values, retold here.

The subject of this test is MEF A1-2A-BIM cells, caspase 3/7 luminescence, 3 h. Kind of test: inducers of caspase signal in A1-dependent MEFs – cell-based, luminescence, retest, A1 inhibitor project, dose response (AID 2765).

The term EC50 denotes the concentration needed to bring the measured effect to its halfway point.

Activity calls are given as the source filed them.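 How the source made its calls: active means half-maximal concentration for the rise in caspase light signal at or below ten times the top tested dose; inconclusive means flat fit between 30% and 70% activity, or unreliable curve fit; inactive means the rest.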

In the case of `Cc1cccc(/C=N/NC(=O)c2cc3c(s2)-c2ccccc2CC3)c1`, the EC50 is > 35 µM (inactive). For `NS(=O)(=O)c1ccc(NC(=O)c2ccc3c(c2)CCCC3)cc1`, the EC50 was > 35 µM (inactive).

For `CC(C)(C)C1C/C(=C/c2ccccn2)C(=O)/C(=C/c2ccccn2)C1` (stereo unspecified), the EC50 was 8.46 µM. For the molecule `COc1ccc(OC)c(NC(=O)CSc2nnc(CNC(=O)COc3ccc(Cl)cc3)o2)c1`, the EC50 was > 35 µM (inactive).

Consider `O=[N+]([O-])/C=C/c1ccc2c(ccn2Cc2ccccc2)c1`, for which the EC50 was 12.3 µM.

For the molecule `COc1ccccc1NC(=O)Nc1c(C)n(C)n(-c2ccccc2)c1=O`, the EC50 was > 35 µM (inactive).

In the case of `CCOCCCNC(=O)c1ccc(N2CC3CC(C2)c2cccc(=O)n2C3)c(NC(=O)Nc2cccc(OC)c2)c1` (stereo unspecified), the EC50 is > 35 µM (inactive). As for `O=C(CN(c1ccc(Br)cc1)S(=O)(=O)c1ccc(Cl)c([N+](=O)[O-])c1)NCCc1ccccc1`, the EC50 was > 35 µM (inactive). Take `Cc1ccc(S(=O)(=O)N(C)Cc2ccc(C(=O)N/N=C/c3ccc(OC(F)F)cc3)cc2)cc1`: the EC50 was > 35 µM (inactive). With `CC(C)CC(=O)c1c[nH]c(C(=O)NCc2ccccc2)c1`, the EC50 is > 35 µM (inactive). Next, `Cc1ccn(C(=O)c2ccc(NC(=O)C3CCCCC3)cc2)n1`: > 35 µM (inactive). In the case of `O=c1c(O[C@@H]2O[C@H](CO)[C@@H](O)[C@H](O)[C@H]2O)c(-c2ccc(O)cc2)oc2cc(O)cc(O)c12`, the EC50 was > 35 µM (inactive).

In the case of `OC(CNCC1COc2ccccc2O1)COc1ccc(Cl)cc1` (stereo unspecified), the EC50 was > 35 µM (inactive). Consider `COc1ccc2c(c1)CCc1c(C(=O)Nc3cc(C)n(Cc4ccc(Cl)cc4)n3)noc1-2`, for which the EC50 is 15 µM.

Regarding `CCC(Sc1ncccc1Nc1ccccn1)C(=O)O` (stereo unspecified), the EC50 was > 35 µM (inactive). Consider `O=C(CCCCCn1c(=S)[nH]c2ccsc2c1=O)NC1CCCCC1`, for which the EC50 is > 35 µM (inactive). The figure for `Cc1ccccc1S(=O)(=O)N(CC(O)CN1CCCCC1)c1ccccc1` (stereo unspecified) is > 35 µM (inactive). For the molecule `NCC1CCC(C(=O)Oc2ccc(CCC(=O)O)cc2)CC1` (stereo unspecified), the EC50 was > 35 µM (inactive). Regarding `COc1cccc(-c2cc(C(F)(F)F)c(C#N)c(=O)[nH]2)c1`, the EC50 was > 35 µM (inactive). With `O=C(/C=C/c1ccc(O)cc1)c1ccc(O)cc1O`, the EC50 was > 35 µM (inactive). The figure for `COc1c(Br)cc([N+](=O)[O-])c(OC)c1C(=O)NC(=O)Nc1nc(C)cc(C)n1` is > 35 µM (inactive). `COC(=O)[C@]1(C)CCC[C@@]2(C)C3CC[C@@]4(C)C[C@]3(CCC21)CC4=NO` (stereo partly specified): the EC50 was > 35 µM (inactive).

As to `Cc1occc1-c1nnc(SCC(=O)NCCc2ccccc2)n1Cc1ccccc1`, the EC50 was > 35 µM (inactive). Next, `COc1ccc(CCNC(=O)CSc2nc(-c3ccc(OC)c(OC)c3)ccc2C#N)cc1`: > 35 µM (inactive); `O=C(Cc1cn2ccsc2n1)Nc1cccc2cnccc12`: > 35 µM (inactive); `COc1ccc2[nH]c3c(=O)n(/N=C/[C@H]4C(C)C=C(C)CC4C)c(=O)[nH]c3c2c1` (stereo partly specified): 16 µM.

Consider `Cc1c(C(=O)NCCN2C(=O)S/C(=C\c3cccs3)C2=O)cccc1[N+](=O)[O-]`, for which the EC50 is > 35 µM (inactive).

Take `O=C(N/N=C/c1ccc(N2CCCCC2)o1)c1ccccc1[N+](=O)[O-]`: the EC50 was > 35 µM (inactive). Consider `Cc1coc(NC(=O)CSc2nc(-c3ccc(Cl)cc3)cc(C(F)(F)F)c2C#N)n1`, for which the EC50 is > 35 µM (inactive). On to `O=C(COc1ccc(/C=N/NC(=O)c2cc3ccccc3o2)cc1Br)Nc1ccccc1`, for which the EC50 is 31.2 µM.

For the molecule `CS(=O)(=O)c1sc(C#N)c2c1C(=O)CC(c1ccccc1)C2` (stereo unspecified), the EC50 is > 35 µM (inactive). As for `O=C(Nc1nnc(C2CCCCC2)s1)C1CC(=O)N(c2ccc(F)cc2)C1` (stereo unspecified), the EC50 is > 35 µM (inactive).

As to `COc1ccc(S(=O)(=O)N(C)C[C@H]2Oc3ccc(NC(=O)Nc4c(C)noc4C)cc3C(=O)N([C@H](C)CO)C[C@@H]2C)cc1`, the EC50 was > 35 µM (inactive). As to `O=C(Cc1ccccc1)N1CCc2[nH]nc(-c3ccccc3)c2C1`, the EC50 is > 35 µM (inactive).

`CSCCC(NS(=O)(=O)c1ccc(C)cc1)C(=O)NCCc1c[nH]c2ccccc12` (stereo unspecified): the EC50 is > 35 µM (inactive). For the molecule `Cc1ccsc1CNC1CCCCC1`, the EC50 is > 35 µM (inactive).

Turning to `O=C(NCc1ccccc1)c1ccc(C(=O)N(C2CCCCC2)C2CCCCC2)cc1`, the EC50 was > 35 µM (inactive).

Turning to `Cc1ccc2c(c1)C(=O)C(=O)N2Cc1ccc(Cl)cc1`, the EC50 was > 35 µM (inactive).

As for `COc1ccc(CCNC(=O)CCOc2ccc(C)cc2)cc1OC`, the EC50 is > 35 µM (inactive).

Turning to `Cc1c(C(=O)O)sc2nc(-c3cccs3)cc(C(F)(F)F)c12`, the EC50 is > 35 µM (inactive). Take `COc1cc(S(=O)(=O)Nc2ccncc2)ccc1F`: the EC50 is > 35 µM (inactive). Regarding `COc1ccc(NC(=O)C(NC(C)=O)C(=O)NCc2ccccc2Cl)cc1` (stereo unspecified), the EC50 was > 35 µM (inactive). For the molecule `O=C(NC1CCCCC1)c1cccc2c1C(=O)c1ccc(-c3ccc(OC(F)(F)F)cc3)cc1S2(=O)=O`, the EC50 is 27.5 µM.

As for `Cc1cc(C(=O)N2CCN(c3ccc(F)cc3)CC2)on1`, the EC50 is > 35 µM (inactive). For `CCOc1cc(C(=O)CSc2nnc(CNc3ccc(Cl)cc3)o2)ccc1NC(=O)CC`, the EC50 is 16 µM. `CCOC(=O)/C(=C\c1ccc(OC)c(OC)c1)C(=O)c1cccnc1`: the EC50 was > 35 µM (inactive). Next, `O=C(O)CN1C(=O)C2C3CC(C2C1=O)C1C(c2ccccc2)c2sc(=O)[nH]c2SC31` (stereo unspecified): > 35 µM (inactive); `CNC(=O)Nc1ccc(Cn2cc(C(F)(F)F)ccc2=O)cc1`: > 35 µM (inactive). With `COC(=O)N(NC(=O)C(O)(c1ccccc1)c1ccccc1)c1ccc(C)cc1`, the EC50 is > 35 µM (inactive). For `O=C(NC1CCCCC1)C(c1ccc(F)cc1)N(CCc1ccccc1)C(=O)CN1C(=O)c2ccccc2S1(=O)=O` (stereo unspecified), the EC50 is 24.1 µM. `C=CCn1c(SCC(=O)NC2CC2)nnc1-c1ccccn1`: the EC50 is > 35 µM (inactive). Turning to `CSc1ccc(S(=O)(=O)N2CCC(C(=O)NCCc3ccccc3)CC2)cc1`, the EC50 is > 35 µM (inactive). For `CC(Oc1ccccc1)C(=O)N1CCN=C1SCc1ccccc1` (stereo unspecified), the EC50 is > 35 µM (inactive). The figure for `Cc1cc(NC(=O)c2ccc3c(c2)C(=O)N(Cc2ccccc2)C3=O)no1` is > 35 µM (inactive); for `O=C(CN1C(=O)c2ccccc2S1(=O)=O)NCCc1ccccc1` it is > 35 µM (inactive); for `CN(CC(O)COC(c1ccccc1)c1ccccc1)C1CCCCC1` (stereo unspecified) it is > 35 µM (inactive). Next, `Cc1ccc(-c2nc(NC(=O)c3nn(C)cc3[N+](=O)[O-])sc2C)cc1`: 9.72 µM.

For the molecule `O=C(CCC(=O)N1CCN(c2ccccc2F)CC1)N1CCN(c2ccccc2)CC1`, the EC50 was > 35 µM (inactive). In the case of `COc1cc2c(c(OC)c1OC)-c1ccc(O)c(=O)cc1C(NC(C)=O)CC2` (stereo unspecified), the EC50 is > 35 µM (inactive). In the case of `Cc1nnc(SCC(=O)NN2C(=O)NC3(CCCCC3)C2=O)s1`, the EC50 was > 35 µM (inactive).

Turning to `CC1COc2ccccc2N1C(=O)c1ccc(Cl)cc1` (stereo unspecified), the EC50 is > 35 µM (inactive).
